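Each compound was tested at five concentrations against cells in 96-well plates for 48 hours. GI50 is the concentration that inhibits growth by half. TGI marks complete inhibition of growth.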
How the values were obtained:
Assay in all cases: NCI tumour cell line growth inhibition, 48 h
[1] = system: A549 NSCLC
[2] = system: HCC-2998 colon
[3] = system: M14 melanoma
[4] = system: MALME-3M melanoma
[5] = system: SK-MEL-28 melanoma
[6] = system: A498 renal
[7] = system: MCF7 breast
[8] = system: MDA-MB-231 breast
[9] = system: SK-OV-3 ovarian
[10] = system: HOP-92 NSCLC

Row | Structure (SMILES) | TGI [1] | TGI [2] | TGI [3] | TGI [4] | TGI [5] | GI50 [6] | TGI [6] | GI50 [1] | GI50 [2] | GI50 [3] | GI50 [4] | GI50 [7] | TGI [7] | GI50 [8] | TGI [8] | GI50 [5] | GI50 [9] | TGI [9] | TGI [10]
1 | N=C(N)SCCc1cn2ccccc2n1 | > 100 µM | > 100 µM | > 100 µM | > 100 µM | > 100 µM |  |  |  |  |  |  |  |  |  |  |  |  |  | 
2 | O=C1c2ccccc2C(=O)N1c1ccc(S(=O)(=O)Nc2ncccn2)cc1 | > 100 µM | > 100 µM | > 100 µM | > 100 µM | > 100 µM | > 100000 nM | > 100 µM | > 100 µM | 22.7 µM | > 100 µM | > 100 µM | > 100 µM | > 100 µM | > 100 µM | > 100 µM | > 100 µM | > 100 µM | > 100 µM | 
3 | CCCCCCCCCCCCCCCC(=O)OCC(O)C1OC(=O)C(O)=C1O (stereo unspecified) | 42.9 µM | > 100 µM | 36.2 µM | > 100 µM | 41.4 µM |  | 77 µM |  |  |  |  |  | 4.81 µM |  | 54.2 µM |  |  | > 100 µM | 
4 | O=C1CCCC/C1=C/C=C/c1ccccc1 | > 100 µM | > 100 µM | > 100 µM | > 100 µM | > 100 µM |  | > 100 µM |  |  |  |  |  |  |  |  |  |  | > 100 µM | > 100 µM
5 | CC(=O)O[C@@H]1CO[C@H]2O[C@H]3[C@@H](C(C=O)=C[C@H](O)[C@@H]4C5=C(C(C)C)CC[C@]5(C)CC[C@@]34C)[C@@]2(O)C1=O | 5.57 µM | 1.27 µM | 0.723 µM | 0.347 µM | 0.771 µM |  | 1.96 µM |  |  |  |  |  | 1.69 µM |  | 0.407 µM |  |  |  | 0.554 µM
6 | CCCN(CCC)c1ccc(CO)c(C)c1 | > 100 µM | > 100 µM | > 100 µM | 94.4 µM | > 100 µM | 1090 nM | 3.64 µM | 83.3 µM | > 100 µM | > 100 µM | 11.3 µM | > 100 µM | > 100 µM | 77.4 µM | > 100 µM | > 100 µM | > 100 µM | > 100 µM | 
7 | COc1ccc2c3c1C(=O)CCC3CO2 (stereo unspecified) | > 100 µM | > 100 µM | > 100 µM | > 100 µM | > 100 µM |  | > 100 µM |  |  |  |  |  |  |  |  |  |  | > 100 µM | > 100 µM
8 | CCc1c2c(nc3cc4c(cc13)OCO4)-c1cc3c(c(=O)n1C2)COC(=O)[C@@]3(CC)OC(=O)CN | 0.149 µM | 0.194 µM | < 0.0247 µM | 1.43 µM |  | < 10.7 nM | 0.166 µM | < 0.01 µM | < 0.0112 µM | < 0.01 µM | < 0.015 µM | < 0.01 µM | < 0.0346 µM | 0.195 µM | 15 µM | 0.101 µM | < 0.01 µM | < 0.0185 µM | 
9 | [Cu+2].[O-]c1ccc2ccccc2c1N=Nc1ccccc1.[O-]c1ccc2ccccc2c1N=Nc1ccccc1 | > 100 µM | > 100 µM | > 100 µM | > 100 µM | > 100 µM |  |  |  |  |  |  |  | > 100 µM |  | > 100 µM |  |  | > 100 µM | > 100 µM

From PubChem BioAssay (NCI)
